Like-named read-outs stand apart in the source and are kept apart here.
Legend:
[1] = tested on: hiPSC-CMs (iCell-Cardiomyocytes^2)
Method: (§1) Cells were seeded according to the instructions of the cell provider, in fibronectin-coated 48-well MEA plates (Axion Cytoview Plates, M768-tMEA-48B) at a density suited to form a monolayer (i.e., 50 K/well) and maintained in culture in a stage incubator (37°C, 5% CO2).
(§2) At least 4 h before the beginning of the baseline measurements, a full medium exchange was performed (to a final volume of 400 µL per well). Neat compounds were dissolved in 100% DMSO at a stock concentration 1000-fold the highest target concentration. […] Afterwards, these stock solutions were diluted with Maintenance medium (CDi), to 10-fold the intended concentration. The final DMSO concentration in test solutions and vehicle control was 0.1%.
(§3) Spontaneous electrical activity was recorded in hiPSC-CMs monolayers as field potentials using the Maestro Pro MEA instrument (Axion Biosystems, Atlanta, GA, United States), which allows the maintenance of accurate temperature and CO2 levels (37°C, 5% CO2). After the plate was placed in the Maestro Pro and allowed to equilibrate for about 10 min, baseline acquisition of field potential and impedance signals was initiated and lasted for 5 min each. […] As impedance measures resistance of an applied alternating current through the hiPSC-CMs monolayer, a reduction in the attachment of hiPSC-CMs to the bottom of the well due to cell death or changes in the monolayer morphology, causes a drop in the impedance signal.
The potential presence of various arrhythmic events was evaluated and noted during the data analysis.
(§4) After the acquisition of all timepoint measurements, raw data were loaded into the data analysis software Axion Cardiac Analysis Tool (V.3.2.3). […] A.csv file containing information on the FP parameters per well, per time point, was then generated and used as input to the in-house data management system (SPEcII v.3.4, Unlimit-IT, Geel, Belgium), where descriptive statistics were calculated. Summary values at different time points after compound addition are expressed as percent change from baseline and shown as mean ± standard deviation (SD).
(§5) The nonparametric Wilcoxon-Mann Whitney Test was used to compare the percent change from the baseline (Δ%) value between the group treated with the compound at a given concentration and the group treated with the DMSO at each matching time points. A two-sided test at 5% significance level was considered. […] To assess the physiological relevance of changes, a tolerance interval of DMSO experiments was calculated at each time point, for each parameter. […] TIs indicate an interval where, with a certain confidence level (1- α = 0.95), a specified proportion (p = 0.80) of percent change for DMSO data falls. The lower and upper limits based on the TI values were used as cut-offs for the interpretation of the changes. For the cytotoxicity assays, measurements of fluorescence (after background fluorescence subtraction) from wells treated with the compounds were normalized by the average value of vehicle experiments (DMSO 0.1%) to obtain a DMSO-corrected, delta/delta percent change. Experiments from each condition, as delta/delta percent, were averaged and expressed as mean ± SD. Statistical analysis was performed using a non-parametric test (Kruskal-Wallis) and each treatment condition was compared to the relative DMSO 0.1%. Differences were considered statistically significant when the p-value was smaller than 0.05.

[2] = tested on: hiPSC-CMs (iCell-Cardiomyocytes^2); experiment: MEA impedance (cytotoxicity readout) in hiPSC-CMs
Method: as §1, §2, §3, §4, §5

- BR (beating rate), % change from baseline ([1]; 0.1 µM, 2h): 2±1%
- FPD (field-potential duration), % change from baseline ([1]; 0.1 µM, 2h): 3.2±0.7%
- FPDc (field-potential duration corrected by beat-rate), % change from baseline ([1]; 0.1 µM, 2h): 4.1±0.9%
- BR (beating rate), % change from baseline ([1]; 0.1 µM, 24h): 2±2%
- FPD (field-potential duration), % change from baseline ([1]; 0.1 µM, 24h): 8.9±2.4%
- FPDc (field-potential duration corrected by beat-rate), % change from baseline ([1]; 0.1 µM, 24h): 9.7±1.6%
- BR (beating rate), % change from baseline ([1]; 0.1 µM, 48h): -1±3%
- FPD (field-potential duration), % change from baseline ([1]; 0.1 µM, 48h): 8.3±2.5%
- FPDc (field-potential duration corrected by beat-rate), % change from baseline ([1]; 0.1 µM, 48h): 8±2.9%
- BR (beating rate), % change from baseline ([1]; 0.1 µM, 72h): 0±2%
- FPD (field-potential duration), % change from baseline ([1]; 0.1 µM, 72h): 7.8±1.4%
- FPDc (field-potential duration corrected by beat-rate), % change from baseline ([1]; 0.1 µM, 72h): 7.6±1.5%
- BR (beating rate), % change from baseline ([1]; 0.1 µM, 96h): -5±2%
- FPD (field-potential duration), % change from baseline ([1]; 0.1 µM, 96h): 8.9±2.9%
- FPDc (field-potential duration corrected by beat-rate), % change from baseline ([1]; 0.1 µM, 96h): 7.1±3.5%
- BR (beating rate), % change from baseline ([1]; 0.3 µM, 2h): 2±3%
- FPD (field-potential duration), % change from baseline ([1]; 0.3 µM, 2h): 2.9±2.5%
- FPDc (field-potential duration corrected by beat-rate), % change from baseline ([1]; 0.3 µM, 2h): 3.8±2.3%
- BR (beating rate), % change from baseline ([1]; 0.3 µM, 24h): 2±2%
- FPD (field-potential duration), % change from baseline ([1]; 0.3 µM, 24h): 12.5±1.8%
- FPDc (field-potential duration corrected by beat-rate), % change from baseline ([1]; 0.3 µM, 24h): 13±1.9%
- BR (beating rate), % change from baseline ([1]; 0.3 µM, 48h): -4±3%
- FPD (field-potential duration), % change from baseline ([1]; 0.3 µM, 48h): 12.1±2.3%
- FPDc (field-potential duration corrected by beat-rate), % change from baseline ([1]; 0.3 µM, 48h): 10.4±2.2%
- BR (beating rate), % change from baseline ([1]; 0.3 µM, 72h): -4±1%
- FPD (field-potential duration), % change from baseline ([1]; 0.3 µM, 72h): 9.2±4.1%
- FPDc (field-potential duration corrected by beat-rate), % change from baseline ([1]; 0.3 µM, 72h): 7.7±3.7%
- BR (beating rate), % change from baseline ([1]; 0.3 µM, 96h): -6±2%
- FPD (field-potential duration), % change from baseline ([1]; 0.3 µM, 96h): 10.3±1.1%
- FPDc (field-potential duration corrected by beat-rate), % change from baseline ([1]; 0.3 µM, 96h): 8.2±1.1%
- BR (beating rate), % change from baseline ([1]; 1 µM, 2h): 3±2%
- FPD (field-potential duration), % change from baseline ([1]; 1 µM, 2h): 3.3±5.6%
- FPDc (field-potential duration corrected by beat-rate), % change from baseline ([1]; 1 µM, 2h): 4.5±5%
- BR (beating rate), % change from baseline ([1]; 1 µM, 24h): 1±4%
- FPD (field-potential duration), % change from baseline ([1]; 1 µM, 24h): 19.3±18.2%
- FPDc (field-potential duration corrected by beat-rate), % change from baseline ([1]; 1 µM, 24h): 19.6±16.4%
- BR (beating rate), % change from baseline ([1]; 1 µM, 48h): -4±4%
- FPD (field-potential duration), % change from baseline ([1]; 1 µM, 48h): 20.8±13.7%
- FPDc (field-potential duration corrected by beat-rate), % change from baseline ([1]; 1 µM, 48h): 19±15%
- BR (beating rate), % change from baseline ([1]; 1 µM, 72h): -6±2%
- FPD (field-potential duration), % change from baseline ([1]; 1 µM, 72h): 17.3±16.7%
- FPDc (field-potential duration corrected by beat-rate), % change from baseline ([1]; 1 µM, 72h): 15.4±17.1%
- BR (beating rate), % change from baseline ([1]; 1 µM, 96h): -6±5%
- FPD (field-potential duration), % change from baseline ([1]; 1 µM, 96h): 19±15.6%
- FPDc (field-potential duration corrected by beat-rate), % change from baseline ([1]; 1 µM, 96h): 16.5±16.6%
- BR (beating rate), % change from baseline ([1]; 3 µM, 72h): -5±2%
- FPD (field-potential duration), % change from baseline ([1]; 3 µM, 72h): 12.9±3.8%
- FPDc (field-potential duration corrected by beat-rate), % change from baseline ([1]; 3 µM, 72h): 11.2±3%
- BR (beating rate), % change from baseline ([1]; 3 µM, 96h): -5±5%
- FPD (field-potential duration), % change from baseline ([1]; 3 µM, 96h): 14.4±6.3%
- FPDc (field-potential duration corrected by beat-rate), % change from baseline ([1]; 3 µM, 96h): 12.1±5%
- BR (beating rate), % change from baseline ([1]; 3 µM, 2h): 3±2%
- FPD (field-potential duration), % change from baseline ([1]; 3 µM, 2h): 4.9±3.1%
- FPDc (field-potential duration corrected by beat-rate), % change from baseline ([1]; 3 µM, 2h): 6.1±3.3%
- BR (beating rate), % change from baseline ([1]; 3 µM, 24h): 1±4%
- FPD (field-potential duration), % change from baseline ([1]; 3 µM, 24h): 14.6±2.3%
- FPDc (field-potential duration corrected by beat-rate), % change from baseline ([1]; 3 µM, 24h): 15.2±2.8 %
- BR (beating rate), % change from baseline ([1]; 3 µM, 48h): -5±2%
- FPD (field-potential duration), % change from baseline ([1]; 3 µM, 48h): 14.5±3.8%
- FPDc (field-potential duration corrected by beat-rate), % change from baseline ([1]; 3 µM, 48h): 12.5±3%
SMILES: O=C(O)COCCN1CCN(C(c2ccccc2)c2ccc(Cl)cc2)CC1 (centres unmarked) [Cetirizine]
- Imp (impedance), % change from baseline ([2]; 0.1 µM, 2h): -4±4%
- Imp (impedance), % change from baseline ([2]; 0.1 µM, 24h): -8±1%
- Imp (impedance), % change from baseline ([2]; 0.1 µM, 48h): -7±2%
- Imp (impedance), % change from baseline ([2]; 0.1 µM, 72h): -7±3%
- Imp (impedance), % change from baseline ([2]; 0.1 µM, 96h): -7±4%
- Imp (impedance), % change from baseline ([2]; 0.3 µM, 2h): -3±3%
- Imp (impedance), % change from baseline ([2]; 0.3 µM, 24h): -8±2%
- Imp (impedance), % change from baseline ([2]; 0.3 µM, 48h): -5±4%
- Imp (impedance), % change from baseline ([2]; 0.3 µM, 72h): -5±6%
- Imp (impedance), % change from baseline ([2]; 0.3 µM, 96h): -5±6%
- Imp (impedance), % change from baseline ([2]; 1 µM, 2h): -4±2%
- Imp (impedance), % change from baseline ([2]; 1 µM, 24h): -7±5%
- Imp (impedance), % change from baseline ([2]; 1 µM, 48h): -4±7%
- Imp (impedance), % change from baseline ([2]; 1 µM, 72h): -5±6%
- Imp (impedance), % change from baseline ([2]; 1 µM, 96h): -4±9%
- Imp (impedance), % change from baseline ([2]; 3 µM, 72h): -8±7%
- Imp (impedance), % change from baseline ([2]; 3 µM, 96h): -6±7%
- Imp (impedance), % change from baseline ([2]; 3 µM, 2h): -3±2%
- Imp (impedance), % change from baseline ([2]; 3 µM, 24h): -7±4%
- Imp (impedance), % change from baseline ([2]; 3 µM, 48h): -3±6%

Reference: publication PMC10364322, “Evaluation of chronic drug-induced electrophysiological and cytotoxic effects using human-induced pluripotent stem cell-derived cardiomyocytes (hiPSC-CMs)” (Frontiers in Pharmacology, 2023)
